Where two headings read alike, the source gives them in different places.

This test has as its system Anthonomus grandis (Cotton Boll Weevil). In words: Anthonomus grandis (Cotton Boll Weevil) test on sprayed cotton plants, mortality assessed. Format: in vivo. The settings on record: 120 h, read-out: control (mortality assessed). The protocol:
Anthonomus grandis (Cotton Boll Weevil)
Cotton plants are treated (100 mL spray volume) and 10 adult weevils are added to each plant (2 replicates per concentration). 5 days after infestation the mortality is assessed. The following compounds were tested and gave at least 80% control at 50 ppm: B3, B4, C2, C3, C4, E1, E7
Compounds are tested according to the above method.

[1] abbreviates: 50 ppm, cotton plants treated (100 mL spray volume), 10 adult weevils per plant, 5 days after infestation.

By mortality is commonly meant the percentage killed. Turning to `C[C@H](NC(=O)C1CC1)c1ccc(N2CCC(c3cc(C(F)(F)F)cc(C(F)(F)F)c3)(C(F)(F)F)C2)cc1` (stereo partly drawn) [Compound B4, N-[(1S)-1-[4-[3-[3,5-bis(trifluoromethyl)phenyl]-3-(trifluoromethyl)pyrrolidin-1-yl]phenyl]ethyl]cyclopropanecarboxamide], the mortality at 50 ppm under setting [1] was at least 80%.

Regarding `N#Cc1cc(C2=NOC(c3cc(Cl)c(F)c(Cl)c3)(C(F)(F)F)C2)ccc1-n1cncn1` (centres unmarked) [Compound C3], the mortality at 50 ppm was at least 80%.

As to `C[C@H](NC(=O)C1CC1)c1ccc(C2(C(F)(F)F)CN=C(c3cc(Cl)c(Cl)c(Cl)c3)C2)cc1` (stereo partly drawn) [Compound B3, N-[(1S)-1-[4-[5-(3,4,5-trichlorophenyl)-3-(trifluoromethyl)-2,4-dihydropyrrol-3-yl]phenyl]ethyl]cyclopropanecarboxamide], under setting [1], the mortality at 50 ppm was at least 80%.

Regarding `CCC(=O)NC1CCc2cc(C3=NOC(c4cc(Cl)cc(Cl)c4)(C(F)(F)F)C3)ccc21` (centres unmarked) [Compound E1], the mortality at 50 ppm is at least 80%.

On to `N#Cc1cc(C2=NCC(c3cc(Cl)c(Cl)c(Cl)c3)(C(F)(F)F)C2)ccc1-n1cncn1` (centres unmarked) [Compound C2, 2-(1,2,4-triazol-1-yl)-5-[3-(3,4,5-trichlorophenyl)-3-(trifluoromethyl)-2,4-dihydropyrrol-5-yl]benzonitrile], for which the mortality at 50 ppm under setting [1] is at least 80%.
